Assay results from patent US20210369678A1, “BENZIMIDAZOLE DERIVATIVE FOR USE IN THE TREATMENT OF INFLAMMATORY DISORDERS” (Akebia Therapeutics, Inc., priority 2018, published 2021).
“Also recorded” adds a separate entry of the source. Where two headings read alike, the source gives them in different places.

How the values were obtained:
[1] = Caco-2 cell monolayer permeability; type: in vitro ADME; conditions: human, tested at 10 μM, read-out: apical-to-basolateral apparent permeability Papp
Method: In Caco-2 cell monolayers, Compound 1 had low apical-to-basolateral apparent permeability Papp value of <0.2×10^−6 cm/s when tested at 10 μM.

systemic EPO = test: Systemic EPO response after oral and intraperitoneal dosing (MSD assay); type: in vivo, male Balb/c mice; conditions: 6 h post dosing
Method: (§1) The effect of both oral (p.o.) and intraperitoneal (i.p.) doses of Compound 1 on systemic EPO in male Balb/c mice was investigated, along with plasma drug concentrations at 1 h and 6 h post dosing. Systemic EPO was measured 6 h post dosing of Compound 1 using a commercially-available MSD assay system, correlated to standard curves. Plasma drug concentrations were quantitated by LC MS/MS. […] FIG. 1 depicts the EPO response to oral (p.o.) and intraperitoneal (i.p.) doses of Compound 1 at 6 h in BalbC mice.

DSS-induced colitis = test: Dextran sulfate sodium (DSS)-induced colitis model; type: in vivo, mice
Method: Colitis was induced in 121 mice by exposure to 3% DSS-treated drinking water from Day 0 to Day 5. Animals were dosed via oral gavage (p.o.) with Compound 1, 6-thioguanine, or vehicle control once a day (q.d.) from Day 6 to 19. Video endoscopy was performed on days 10, 14, and 19. At these time points, colitis severity was assessed in all animals using video endoscopy, where images were taken and colitis severity scored by a blinded observer. During each endoscopy procedure, stool consistency was recorded using a 0-4 scale and an image from each animal was captured at the most severe region of disease that was identified. Following endoscopy on Day 19, all animals for the efficacy component were euthanized with CO2 inhalation. Blood was collected via cardiac puncture and placed in K2EDTA tubes for preparation of plasma. A small whole blood sample was retained for the assessment of hemoglobin and hematocrit while the remaining sample was processed to plasma, then split into two samples and snap frozen. A complete blood count, including hematocrit and hemoglobin levels, was assessed using an automated PCE-90 Vet hematology unit (HTI). FIG. 3 depicts the serum hemoglobin concentration after 14 days of oral dosing Compound 1 in mice with dextran sulfate sodium (DSS)-induced colitis. FIG. 4 depicts Endoscopy Colitis Scores in mice with dextran sulfate sodium (DSS)-induced colitis dosed via oral gavage with Compound 1, 6-thioguanine, or vehicle control once a day after 19 days.

[2] = Plasma drug concentrations after oral and intraperitoneal dosing (LC MS/MS); type: in vivo, male Balb/c mice; conditions: male, Balb/c, mouse, read-out: blood levels; for concentration at 1 h: 1 h post dosing; for concentration at 6 h: 6 h post dosing
Method: as §1

TNBS-induced colitis = test: Trinitrobenzene sulfonic acid (TNBS)-induced colitis model; type: in vivo, male SJL mice
Method: A study was conducted to determine the effects of Compound 1 compared to positive control prednisolone dosed by the oral (p.o.) route in trinitrobenzene sulfonic acid (TNBS)-induced colitis in male SJL mice (FIG. 5). The mice were divided into 5 groups. The mice were fasted for 12 to 16 hours prior to TNBS challenge. On day 0 of the study, mice in groups 2 through 5 were infused intrarectally (IR) with 50 μL TNBS solution (1.5 mg in 50% EtOH/PBS per mouse) to induce colitis. The mice in group 2 were dosed (PO) daily (QD) on days 0 to 3 with vehicle (0.5% HPMC, 0.1% Tween 80 in water). The mice in group 4 were dosed p.o. daily on days 0 to 3 with Compound 1 at 10 mpk, and the mice in group 5 were dosed p.o. daily on days 0 to 3 with Compound 1 at 30 mpk. Prednisone (group 3) was used as a positive control and was dosed p.o., QD on days 0 to 3. Group 1 served as naïve controls. On study day 4, the mice were anesthetized with Isoflurane, bled to exsanguination, and then euthanized for necropsy and tissue collection. Efficacy evaluation was based on animal body weight measurements, colon weights, colon lengths, colon weight per length ratios, histopathology of proximal and distal colons—evaluated as proximal only, distal only, or full colon (proximal and distal). Longitudinal sections of proximal and distal colon were stained with hematoxylin and eosin (H&E). Sections were analyzed using the criteria below and were scored for inflammation, gland loss, and mucosal necrosis. [table] [table] [table] [table] The histopathology sum score was calculated as a sum of inflammation, gland loss, erosion/necrosis (derived from the measure of total length vs. length of mucosal necrosis, i.e., percent), and hyperplasia scores.

[3] = IV/p.o. pharmacokinetic study in rat; type: in vivo, male Sprague Dawley rats
Method: Separate cohorts (n=3) of non-fasted male Sprague Dawley rats were administered Compound 1 at a dose of 1 mg/kg intravenously (IV) via tail vein, 5 mg/kg orally as a solution, or 5 mg/kg orally as a suspension. Blood samples were collected at 0.033 (IV only), 0.083 (IV only), 0.25, 0.5, 1, 2, 4, 8, and 24 hrs post dose after administration. Blood was harvested via the jugular vein catheter. Blood samples were collected into tubes containing K2EDTA and placed on wet ice. The plasma fraction was separated by centrifugation and frozen at −20 to −80 ° C. Concentrations of Compound 1 in plasma were determined using a qualified liquid chromatography-triple quadrupole mass spectrometry. FIG. 2 depicts the plasma concentration of Compound 1 in healthy male SD rats over 24 hours.
(§2) Intravenous and oral (IV/p.o.) pharmacokinetic (PK) studies in rat, dog and monkey were carried out to facilitate the projection of human PK for Compound 1.
(§3) In the rat studies, Compound 1 was dosed both as a suspension (in 0.5% HPMC) and as a solution in 20% HPPCD. Experiments in the dog and monkey were dosed as a suspension in 0.5% HPMC.

[4] = IV/p.o. pharmacokinetic study in dog; type: in vivo, male beagle dogs; conditions: for bioavailability: male, beagle, po, p.o. suspension in 0.5% HPMC
Method: as §2, §3

[5] = IV/p.o. pharmacokinetic study in monkey; type: in vivo, male cynomolgus monkeys
Method: as §2, §3

[6] = 10 and 30 mg/kg p.o. QD days 0 to 3

With `O=C(O)c1cnn(-c2nc3cc(S(=O)(=O)c4ccccc4)c(Cl)cc3[nH]2)c1` [Compound 1, 1-(6-chloro-5-(phenylsulfonyl)-1H-benzo[d]imidazol-2-yl)-1H-pyrazole-4-carboxylic acid] the Papp A→B at 10 μM [1] was less than 0.2 ×10⁻⁶ cm/s, the EPO stimulation (systemic EPO; 100 umol/kg i.p.) was 34 fold above vehicle control and the EPO stimulation (systemic EPO; 100 umol/kg p.o.) was “no EPO stimulation”. The “efficacy in mouse model of inflammatory bowel disease” value (DSS-induced colitis; p.o. dosing) was “excellent efficacy”, the “systemic pharmacology resulting in increases in EPO/hematocrit” value (DSS-induced colitis; p.o. dosing, mouse models of inflammatory bowel disease) was “no systemic pharmacology resulting in increases in EPO/hematocrit was observed” and the “Endoscopic Colitis Scores” value (DSS-induced colitis; p.o. q.d. Day 6 to 19, 3% DSS Day 0 to 5) was “effective at ameliorating DSS induced colitis”. For the same compound, the concentration at 1 h ([2]; ip, 100 umol/kg i.p.) was 42200 nM, the concentration at 6 h ([2]; ip, 100 umol/kg i.p.) was 5100 nM and the concentration at 1 h ([2]; po, 100 umol/kg p.o.) was 100 nM. The concentration at 6 h ([2]; po, 100 umol/kg p.o.) was 20 nM, the body weight loss (TNBS-induced colitis; [6]) was “statistically significant inhibition of body weight loss; also recorded: protects against body weight loss” and the colon histopathology (TNBS-induced colitis; [6]) was “improvements in colon histopathology”. For the same compound, the colon weight/length ratio (TNBS-induced colitis; [6]) was “decreased colon weight/length ratios; also recorded: improves colon weight/length ratio”, the “full-colon and proximal-colon histopathology” value (TNBS-induced colitis; 10 or 30 mpk p.o. QD days 0 to 3) was “significant beneficial effects” and the histopathology inflammation score (TNBS-induced colitis; p.o. QD days 0 to 3) was “improves the histopathology inflammation score”. For the same compound, the histopathology summed score (TNBS-induced colitis; p.o. QD days 0 to 3) was “improves the histopathology summed score”, the “efficacy in mouse model of inflammatory bowel disease” value (TNBS-induced colitis; p.o. dosing) was “excellent efficacy” and the “estimated fa*fg (fa: fraction absorbed; fg: fraction that escapes gut metabolism)” value [3] was no more than 0.12. The “terminal t1/2” value [3] was “short”, the bioavailability ([3]; male, Sprague-Dawley, plasma, po, 5 mg/kg, p.o. dosing) was no more than 5% and the “estimated fa*fg (fa: fraction absorbed; fg: fraction that escapes gut metabolism)” value [4] was no more than 0.12. The “terminal t1/2” value [4] was “short”, the bioavailability ([4]; in vivo) was no more than 5% and the bioavailability ([4]; plasma) was less than 5%. The “estimated fa*fg (fa: fraction absorbed; fg: fraction that escapes gut metabolism)” value [5] was no more than 0.12, the “terminal t1/2” value [5] was “short” and the bioavailability ([5]; male, cynomolgus monkey, plasma, po, p.o. suspension in 0.5% HPMC) was no more than 5%.
